Results as given in patent US4769250A, “Antracycline antineoplastic agents encapsulated in phospholipid vesicle particles and methods for using same for tumor therapy” (priority 1987, dated 1988).

Assays:
[1] = children highly susceptible (Mosijezuk et al.); cited from earlier work
[2] = toxicity determined by survival in tumor-bearing mice; type: in vivo
[3] = test system: P-1798 solid lymphosarcoma; assay: single dose chemotherapeutic efficacy, intradermal P-1798 solid lymphosarcoma; type: in vivo, mice; conditions: 20 mg/kg single dose
Protocol: In the first investigation, groups of 10 mice received free daunorubicin or daunorubicin-vesicles in 20 mg/kg single doses at three or four days following tumor implantation. Tumors were measured using calipers and the survival over time of treated and control mice was recorded. Controls consisted of injections of a 5% dextrose in water solution at 2 ml/20 gm doses.
Representative results of these investigations are shown in FIG. 5 for treatment commencing on day 3 after tumor implantation. Typically, with tumor metastasis, mice with tumors die within 14-17 days. […] The median life span of mice injected with daunorubicin-vesicles was 21 days.

[4] = binding to distearoyl phosphatidylglycerol; read-out: binding constant; cited from earlier work
[5] = target: DNA; conditions: binding to DNA; read-out: affinity for binding to DNA in a cell (converted); cited from earlier work

Structure (SMILES) | cardiotoxicity [1] | toxicity induced deaths by dose ([2]; 10, 20 and 30 mg/kg) | mortality ([2]; mouse, in vivo, 30 mg/kg, read-out: toxicity induced deaths) | inhibition of tumor growth vs untreated controls [3] | Kd [4] | Kd [5]
COc1cccc2c1C(=O)c1c(O)c3c(c(O)c1C2=O)C[C@@](O)(C(=O)CO)C[C@@H]3O[C@H]1C[C@H](N)[C@H](O)[C@H](C)O1 [doxorubicin] | congestive heart failure |  |  |  |  | 
COc1cccc2c1C(=O)c1c(O)c3c(c(O)c1C2=O)C[C@@](O)(C(C)=O)C[C@@H]3O[C@H]1C[C@H](N)[C@H](O)[C@H](C)O1 [daunorubicin] |  | toxicity induced deaths occurred only for the high dose unencapsulated daunorubicin (30 mg/kg) | 100% | significant inhibition of tumor growth | ~10 µM | ~0.5 µM
